Structures are written as SMILES.

The target in data set [1] is T1, KCC2 (Homo sapiens, UniProt Q9H2X9).
T1 construct: expressed in transfected cells; host or cells: HEK-293 (ATCC CRL-1573), transient transfection
T1 sequence (Q9H2X9 1-1116 isoform Q9H2X9-2): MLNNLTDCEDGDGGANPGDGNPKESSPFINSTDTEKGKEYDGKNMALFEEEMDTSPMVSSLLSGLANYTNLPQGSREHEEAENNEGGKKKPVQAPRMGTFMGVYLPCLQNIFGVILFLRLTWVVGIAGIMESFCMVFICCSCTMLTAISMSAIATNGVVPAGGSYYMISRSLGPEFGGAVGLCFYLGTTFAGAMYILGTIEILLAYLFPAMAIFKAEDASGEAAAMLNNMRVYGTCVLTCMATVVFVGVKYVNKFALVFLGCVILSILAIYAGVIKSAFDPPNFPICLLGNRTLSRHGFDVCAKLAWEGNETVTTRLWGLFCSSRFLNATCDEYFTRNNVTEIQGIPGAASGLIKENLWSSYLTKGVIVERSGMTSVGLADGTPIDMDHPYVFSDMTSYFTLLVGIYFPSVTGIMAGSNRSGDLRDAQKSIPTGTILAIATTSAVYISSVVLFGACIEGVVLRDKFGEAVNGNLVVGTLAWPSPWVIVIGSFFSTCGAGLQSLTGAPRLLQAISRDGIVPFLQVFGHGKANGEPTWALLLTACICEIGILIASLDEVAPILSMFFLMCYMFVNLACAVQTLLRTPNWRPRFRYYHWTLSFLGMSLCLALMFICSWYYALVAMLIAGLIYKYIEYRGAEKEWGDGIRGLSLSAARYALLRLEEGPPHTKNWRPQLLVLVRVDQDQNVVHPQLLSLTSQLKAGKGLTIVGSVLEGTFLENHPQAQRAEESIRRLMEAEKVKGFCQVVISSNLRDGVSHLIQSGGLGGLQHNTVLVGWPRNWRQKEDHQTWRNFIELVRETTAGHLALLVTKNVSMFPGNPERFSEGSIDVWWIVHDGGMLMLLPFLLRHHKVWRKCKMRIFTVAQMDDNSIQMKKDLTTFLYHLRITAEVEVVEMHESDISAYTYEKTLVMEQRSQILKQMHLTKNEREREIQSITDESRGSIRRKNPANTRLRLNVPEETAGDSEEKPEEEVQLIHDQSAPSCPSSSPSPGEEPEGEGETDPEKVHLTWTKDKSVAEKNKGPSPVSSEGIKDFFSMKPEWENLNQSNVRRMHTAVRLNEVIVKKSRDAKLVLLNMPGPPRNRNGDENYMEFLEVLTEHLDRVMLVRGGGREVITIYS
The data set is described as follows: Biotinylation, plasma membrane level of KCC2 in HEK-293 cells. Format: cell-based. The conditions noted are these: 15 min. The procedure:
Cell Culture and biotinylation. HEK-293 cells were purchased from ATCC (CRL-1573) and transfected with human KCC2 and GFP expression plasmids using Lipofectamine 2000. Cells were utilized for experimentation 48-72 h following transfection. Cells were biotinylated at 4° C. using NHS-Biotin. Following lysis and purification on immobilized avidin beads, cell surface and total fractions were subject to immunoblotting as outlined previously (Conway et al., 2017, supra).
The reliability of the biotinylation procedure was assessed via immunoblotting with antibodies against the cytosolic protein actin. Actin was present in the total lysates but was absent from the surface fractions (FIG. 2C).

For data set [2], the system named is 18-20 Div hippocampal neurons. The data set is described as follows: Gramicidin perforated patch clamp, EGABA in hippocampal neurons. It is filed as cell-based, Sprague Dawley. The procedure:
Neuronal Cultures. Hippocampal neurons were prepared from Sprague Dawley E18 embryos and plated at 450,000 per dish and maintained at 37° C. in a humidified 5% CO2 incubator for 10-25 days before experimentation (Lee et al., Nat. Neurosci. 14, 736-743 (2011)).
At this developmental stage, GABAAR receptor activation leads to hyperpolarization, a phenomenon critically dependent upon KCC2 (Kontou et al., J Biol Chem, 100364 (2021)).
Neuronal Patch clamp assays. Neuronal cell culture recordings were performed in bath saline at 34° C. For gramicidin perforated-patch experiments, pipettes contained (in mM): 140 KCl and 10 HEPES, pH 7.4 KOH. […] Bath saline contained the following (in mM): 140 NaCl, 2.5 KCl, 2.5 CaCl2, 2.5 MgCl2, 10 HEPES, and 11 glucose, pH 7.4 NaOH (Kontou et al., 2021, supra). All compound solutions were applied to cells using a three-barreled 700 μm pipe positioned just above the cell (Warner Instruments). […] 10 mV voltage-ramp protocols over 1-s periods were used to determine the reversal potentials of the leak-subtracted muscimol-activated GABAAR currents. All voltages from whole-cell experiments were corrected offline using a calculated liquid junction potential value (13.6 mV) in Clampex (Molecular Devices). For gramicidin perforated-patch experiments, intracellular Cl^− values were back-calculated using measured EGABA values and the Nernst equation: […]
Measurements were performed in the presence of bumetanide […] and tetrodotoxin (TTX; 300 nM) to limit the contributions of NKCC1 and activity dependent shifts in chloride levels, respectively (Lee et al., 2011, supra).
Background: Patch clamp records ionic current or voltage across a cell membrane.

Data set [3] is described as follows: PK study, brain and plasma levels by LC-MS/MS. It is filed as in vivo. The conditions noted are these: mice.

In the case of `C[C@@H]1CN(c2nc3c(c(Nc4ccc(C5CCCCC5)cc4)n2)COC3)CCO1` [Compound A, (R)—N-(4-cyclohexylphenyl)-2-(2-methylmorpholino)-5,7-dihydrofuro[3,4-d]pyrimidin-4-amine], the entries for the “level of KCC2 on the plasma membrane (surface/total)” value in data set [1] (0.3 μM) and in data set [1] (3 μM) were 94.5±8.4 % of control and 104.7±8.4 % of control, respectively. Besides, the “EGABA at 0 min” value in data set [2] (300 nM group, before treatment, bumetanide and TTX present) is reported as −75±3.1 mV. In addition, in data set [2] (300 nM, 15 min, bumetanide and TTX present), the “EGABA at 15 min” value is recorded as −85.1±4.2 mV. Further, the “reduction in Cl−” value in data set [2] (300 nM, 15 min, from EGABA by Nernst equation) stood at 2.2 ± 0.6 mM. Besides, the “time at which accumulation in the brain was detected” value in data set [3] (50 mg/kg SC) stood at 30 min. The “time by which accumulation in the brain was evident” value in data set [3] (single 25 mg/kg IV bolus) was at most 30 min.

The values are drawn from US20260048062A1, “FUSED AMINO PYRIMIDINE COMPOUNDS FOR TREATMENT OF PSYCHOSIS AND PSYCHOTIC DISORDERS” (Ovid Therapeutics Inc., priority 2024, published 2026).
